Reference: PMC7704979, “Effect of the versatile bifunctional chelator AAZTA^5 on the radiometal labelling properties and the in vitro performance of a gastrin releasing peptide receptor antagonist” (EJNMMI Radiopharmacy and Chemistry, 2020)

Legend:
[1] = molecular target: T1, GRPr (Homo sapiens, UniProt P30550); test: Saturation binding studies on intact PC3 cells; settings: for Bmax (concentration of the radiotracer required to saturate the receptors): intact PC3 cells, 4 °C, 120 min, normalized for 1 × 10^6 cells per well
T1 construct: For receptor saturation analysis, PC3 cells were seeded at a density of 0.8–1 million cells per well; endogenous in cells; host or cells: PC3 (human prostate adenocarcinoma cell line), intact cells
T1 sequence (P30550 whole entry): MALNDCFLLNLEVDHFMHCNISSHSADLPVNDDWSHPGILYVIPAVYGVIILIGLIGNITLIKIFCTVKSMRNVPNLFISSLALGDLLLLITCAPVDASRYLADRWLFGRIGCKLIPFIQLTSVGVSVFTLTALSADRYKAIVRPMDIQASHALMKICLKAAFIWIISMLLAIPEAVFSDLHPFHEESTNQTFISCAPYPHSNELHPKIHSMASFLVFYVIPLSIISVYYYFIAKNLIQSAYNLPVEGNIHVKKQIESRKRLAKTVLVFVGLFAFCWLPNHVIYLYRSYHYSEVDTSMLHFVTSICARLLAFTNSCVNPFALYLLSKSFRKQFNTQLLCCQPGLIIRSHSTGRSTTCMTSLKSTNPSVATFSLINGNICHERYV
Experimental: For receptor saturation analysis, PC3 cells were seeded at a density of 0.8–1 million cells per well in 6-well plates and incubated overnight with medium (DMEM: F12 (1:1) containing 1% FBS, 100 U/mL penicillin and 100 μg/mL streptomycin). The next day, the medium was removed, the cells washed and incubated for 1 h at 37 °C with fresh medium. […] After the addition of the radioligands, the cells were incubated for 120 min at 4 °C. Non-specific binding was determined in the presence of Tyr^4-Bombesin at a final concentration of 1 μM. Then the cells were washed twice with ice-cold PBS, followed by solubilization with 1 N NaOH and the cell-associated radioactivity was measured using a gamma-counter. Specific binding was plotted against the total molar concentration of the added radiotracer. The Kd values and the concentration of the radiotracer required to saturate the receptors (Bmax) were determined by nonlinear regression using GraphPad (Prism 8 Graph Pad Software, San Diego, CA). For all the cell studies the values are normalized for 1 × 10^6 cells per well and all data are from two independent experiments with triplicates in each experiment.

[2] = tested on: PC3 cells; test: Internalization studies in PC3 cells; format: cell-based, human; settings: 37 °C; for specifically internalized activity / total cell associated uptake: 6 h; for total cell associated uptake: % of applied radioactivity
Experimental: For internalization experiments, PC3 cells were seeded into 6-well plates and treated as described above. […] To determine nonspecific membrane binding and internalization, excess of Tyr^4-Bombesin (final concentration 1 μΜ) was added to selected wells. At each time point, the internalization was stopped by removing the medium and washing the cells twice with ice-cold PBS. To remove the receptor-bound radioligand, an acid wash was carried out twice with a 0.1 M glycine buffer pH 2.8 for 5 min on ice. Finally, cells were solubilized with 1 N NaOH. The radioactivity of the culture medium, the receptor-bound, and the internalized fractions were measured in a γ-counter.

[3] = tested on: PC3 cells; test: In vitro therapy study, trypan blue exclusion viability of PC3 cells; format: cell-based, human; settings: monotherapy (rapamycin 10 nM or ^177Lu-labelled LF1 1.85 MBq), 72 h
Experimental: For the in vitro therapy studies, PC3 cells were seeded at a density of 50,000–100,000 cells (depending on the investigating time point: 100000, 75,000 and 50,000 cells for 24, 48, 72 h respectively) in 12-well plates and incubated overnight with cultivation medium at 37 °C and 5% CO2. The next day, the medium was removed, the cells washed, and culture medium containing either rapamycin (10 nM, dissolved in dimethyl sulfoxide (DMSO)) or DMSO (control, the final concentration of DMSO in the culture medium was 0.5%) was added. The plates were incubated at 37 °C and 5% CO2 for a period of 6 h. Afterwards, the medium containing rapamycin or DMSO was removed and fresh medium was added in each well. […] The viability of the cells was accessed by the trypan blue exclusion assay after incubation at 37 °C and 5% CO2 for 24, 48 and 72 h. The experiment was performed twice in triplicate.

SMILES: CC(C)C[C@H](NC(=O)CC(O)[C@H](CC(C)C)NC(=O)[C@H](Cc1c[nH]cn1)NC(=O)CNC(=O)[C@@H](NC(=O)[C@H](C)NC(=O)[C@H](Cc1c[nH]c2ccccc12)NC(=O)[C@H](CCC(N)=O)NC(=O)[C@@H](Cc1ccccc1)NC(=O)CN1CCC(NC(=O)CCCCC2(N(CC(=O)O)CC(=O)O)CN(CC(=O)O)CCN(CC(=O)O)C2)CC1)C(C)C)C(N)=O (some centres unmarked) [^68Ga-labelled LF1, metal not drawn]
- Bmax (concentration of the radiotracer required to saturate the receptors) ([1]; listed as 68/natGa-LF1): 0.4 ± 0.02 nM
- factor of lower affinity compared to ^111/natIn-LF1 ([1]; ratio of Kd values, PC3 cells): ~3
- internalized activity ([2]; 4 h): 2.8 ± 0.5%

SMILES: CC(C)C[C@H](NC(=O)CC(O)[C@H](CC(C)C)NC(=O)[C@H](Cc1c[nH]cn1)NC(=O)CNC(=O)[C@@H](NC(=O)[C@H](C)NC(=O)[C@H](Cc1c[nH]c2ccccc12)NC(=O)[C@H](CCC(N)=O)NC(=O)[C@@H](Cc1ccccc1)NC(=O)CN1CCC(NC(=O)CCCCC2(N(CC(=O)O)CC(=O)O)CN(CC(=O)O)CCN(CC(=O)O)C2)CC1)C(C)C)C(N)=O (some centres unmarked) [^111In-labelled LF1, metal not drawn]
- Bmax (concentration of the radiotracer required to saturate the receptors) ([1]; listed as 111/natIn-LF1): 0.6 ± 0.06 nM
- specifically internalized activity [2]: 9.2 ± 0.5%
- total cell associated uptake [2]: 38.3 ± 2.5%

SMILES: CC(C)C[C@H](NC(=O)CC(O)[C@H](CC(C)C)NC(=O)[C@H](Cc1c[nH]cn1)NC(=O)CNC(=O)[C@@H](NC(=O)[C@H](C)NC(=O)[C@H](Cc1c[nH]c2ccccc12)NC(=O)[C@H](CCC(N)=O)NC(=O)[C@@H](Cc1ccccc1)NC(=O)CN1CCC(NC(=O)CN2CCN(CC(=O)O)CCN(CC(=O)O)CCN(CC(=O)O)CC2)CC1)C(C)C)C(N)=O (some centres unmarked) [^177/natLu-RM2, metal not drawn, reference compound]
- Bmax (concentration of the radiotracer required to saturate the receptors) [1]: 0.8 ± 0.03 nM

SMILES: CC(C)C[C@H](NC(=O)CC(O)[C@H](CC(C)C)NC(=O)[C@H](Cc1c[nH]cn1)NC(=O)CNC(=O)[C@@H](NC(=O)[C@H](C)NC(=O)[C@H](Cc1c[nH]c2ccccc12)NC(=O)[C@H](CCC(N)=O)NC(=O)[C@@H](Cc1ccccc1)NC(=O)CN1CCC(NC(=O)CCCCC2(N(CC(=O)O)CC(=O)O)CN(CC(=O)O)CCN(CC(=O)O)C2)CC1)C(C)C)C(N)=O (some centres unmarked) [^177Lu-labelled LF1, metal not drawn]
- Bmax (concentration of the radiotracer required to saturate the receptors) ([1]; listed as 177/natLu-LF1): 0.8 ± 0.05 nM
- specifically internalized activity [2]: 8.9 ± 0.8%
- total cell associated uptake [2]: 34.5 ± 2.3%

SMILES: CO[C@H]1C[C@@H]2CC[C@@H](C)[C@@](O)(O2)C(=O)C(=O)N2CCCC[C@H]2C(=O)O[C@H]([C@H](C)C[C@@H]2CC[C@@H](O)[C@H](OC)C2)CC(=O)[C@H](C)/C=C(\C)[C@@H](O)[C@@H](OC)C(=O)[C@H](C)C[C@H](C)/C=C/C=C/C=C/1C [rapamycin]
- cell viability [3]: approx. 50%
